Experimental data from patent US4206215A, “Antimicrobial bis-[4-(substituted-amino)-1-pyridinium]alkanes” (Sterling Drug Inc., priority 1977, dated 1980).
Like-named read-outs stand apart in the source and are kept apart here.

What was measured:
S. Aureus Smith = assay: In vitro antibacterial activity, MIC (modified Autotiter method); format: cell-based, Staphylococcus aureus; details: for MIC: Staphylococcus aureus, 20 h, read-out: MIC S. Aureus Smith
Procedure: (§1) The antibacterial and antifungal activity of representative examples of the compounds of Formula I was determined using a modification of the Autotiter method described by Goss, et al. Applied Microbiology 16 (9) 1,414-1,416 (1968) in which a 1,000 mcg./ml. solution of the test compound is prepared. To the first cup of the Autotray is added 0.1 ml. of the test solution. Activation of the Autotiter initiates a sequence of operations by which 0.05 ml. of the test compound solution is withdrawn from the cup by a Microtiter transfer loop and diluted in 0.05 ml. of sterile water. Following this operation, 0.05 ml. of inoculated double-strength semisynthetic medium (glucose) is added automatically to each cup. The overall operation results in final drug concentrations ranging from 500 to 0.06 mcg./ml. in twofold decrements. […] The compounds were thus tested as solutions against a variety of gram positive and gram negative bacteria including Staphylococcus aureus, Proteus mirabilis, Escherichia coli, Klebsiella pneumoniae, Pseudomonas aeruginosa, Streptococcus pyogenes, and against such fungi as Aspergillus niger, Candida albicans and Trichophyton mentagrophytes.

E. coli 100/B22 = assay: as above; format: cell-based, Escherichia coli; details: Escherichia coli, 100/B22, 20 h, 18-20 hours at 37° C.; read-out: MIC E. coli 100/B22
Procedure: as §1

E. coli AB1932-1 = assay: as above; format: cell-based, Escherichia coli; details: Escherichia coli, AB19321, 20 h, 18-20 hours at 37° C.; read-out: MIC E. coli AB1932-1
Procedure: as §1

E. coli Vogel = assay: as above; format: cell-based, Escherichia coli; details: for MIC: Escherichia coli, 20 h, read-out: MIC E. coli Vogel
Procedure: as §1

K. pneum. 39645 = assay: as above; format: cell-based, Klebsiella pneumoniae; details: for MIC: Klebsiella pneumoniae, 20 h, read-out: MIC K. pneum. 39645
Procedure: as §1

P. mirab. MGH-1 = assay: as above; format: cell-based, Proteus mirabilis; details: for MIC: Proteus mirabilis, 20 h, read-out: MIC P. mirab. MGH-1
Procedure: as §1

Ps. aerug. MGH-2 = assay: as above; format: cell-based, Pseudomonas aeruginosa; details: for MIC: Pseudomonas aeruginosa, 20 h, read-out: MIC Ps. aerug. MGH-2
Procedure: as §1

S. pyogen. C203 = assay: as above; format: cell-based, Streptococcus pyogenes; details: for MIC: Streptococcus pyogenes, 20 h, read-out: MIC S. pyogen. C203
Procedure: as §1

A. niger 16404 = assay: In vitro antifungal activity, MIC (modified Autotiter method); format: cell-based, Aspergillus niger; details: for MIC: Aspergillus niger, 16404, 20 h, read-out: MIC A. niger 16404
Procedure: as §1

C. albicans 10231 = assay: as above; format: cell-based, Candida albicans; details: for MIC: Candida albicans, 10231, 20 h, read-out: MIC C. albicans 10231
Procedure: as §1

C. albicans Wisc. = assay: as above; format: cell-based, Candida albicans; details: Candida albicans, 20 h, 18-20 hours at 37° C.; read-out: MIC C. albicans Wisc.
Procedure: as §1

T. menta. 9129 = assay: as above; format: cell-based, Trichophyton mentagrophytes; details: for MIC: Trichophyton mentagrophytes, 20 h, read-out: MIC T. menta. 9129
Procedure: as §1

Row | Structure (SMILES) | MIC (S. Aureus Smith; 18-20 hours at 37° C.) [µg/mL] | MIC (E. coli 100/B22) [µg/mL] | MIC (E. coli AB1932-1) [µg/mL] | MIC (E. coli Vogel; 18-20 hours at 37° C.) [µg/mL] | MIC (K. pneum. 39645; 18-20 hours at 37° C.) [µg/mL] | MIC (P. mirab. MGH-1; 18-20 hours at 37° C.) [µg/mL] | MIC (Ps. aerug. MGH-2; 18-20 hours at 37° C.) [µg/mL] | MIC (S. pyogen. C203; 18-20 hours at 37° C.) [µg/mL] | MIC (A. niger 16404; 18-20 hours at 37° C.) [µg/mL] | MIC (C. albicans 10231; 18-20 hours at 37° C.) [µg/mL] | MIC (C. albicans Wisc.) [µg/mL] | MIC (T. menta. 9129; 18-20 hours at 37° C.) [µg/mL] | other results
1 | CCCCCCCCCCNc1cc[n+](CCCCCCCCCC[n+]2ccc(NCCCCCCCCCC)cc2)cc1 [Example 68, 1,10-bis-[4-(decylamino)-1-pyridinium]decane dibromide] | 1.95 | 15.6 | 15.6 | 7.8 | 31.3 | 7.8 | 15.6 | 3.9 | 15.6 | 15.6 | 15.6 | 3.9 | 
2 | CCCCCCCCCCCCNc1cc[n+](CCCCCCCCCC[n+]2ccc(NCCCCCCCCCCCC)cc2)cc1 [Example 74, 1,10-bis-[4-(dodecylamino)-1-pyridinium]decane dibromide] | 15.6 | > 62.5 | > 62.5 | > 62.5 | > 62.5 | > 62.5 | > 62.5 | 15.6 | > 62.5 | > 62.5 | > 62.5 | 15.6 | 
3 | Cc1cc(N)cc[n+]1CCCCCCCC[n+]1ccc(N)cc1C [VIII, 1,8-bis-(4-amino-2-methyl-1-pyridinium)octane dibromide, reference compound] |  |  |  |  |  |  |  |  |  |  |  |  | MIC (S. Aureus Smith): 31.3 µg/mL; MIC (E. coli Vogel): > 250 µg/mL; MIC (K. pneum. 39645): 500 µg/mL; MIC (P. mirab. MGH-1): > 500 µg/mL; MIC (Ps. aerug. MGH-2): > 500 µg/mL; MIC (S. pyogen. C203): 7.8 µg/mL; MIC (A. niger 16404): 125 µg/mL; MIC (C. albicans 10231): 125 µg/mL; MIC (T. menta. 9129): 15.6 µg/mL
4 | CCCCCCCCCCNc1cc[n+](CCCCCCC[n+]2ccc(NCCCCCCCCCC)cc2)cc1 [Example 65, 1,7-bis-[4-(decylamino)-1-pyridinium]heptane dibromide] | 1 | 3.9 | 3.9 | 3.9 | 7.8 | 3.9 | 7.8 | 1 | 7.8 | 15.6 | 15.6 | 1.95 | 
5 | Nc1cc[n+](CCCCCCCCCCCC[n+]2ccc(N)cc2)cc1 [V, 1,12-bis-(4-amino-1-pyridinium)dodecane dibromide, reference compound] | 1.95 |  |  | 62.5 | > 62.5 | > 125 | > 62.5 | 1 | 31.3 | 31.3 |  | 3.9 | 
6 | Clc1ccc(Nc2cc[n+](CCCCC[n+]3ccc(Nc4ccc(Cl)cc4)cc3)cc2)cc1 [Example 80, 1,5-bis-[4-(p-chlorophenylamino)-1-pyridinium]pentane dibromide] | 7.8 | 125 | 31.3 | 125 | > 125 | > 125 | > 125 | 1.95 | 62.5 | 62.5 | 62.5 | 15.6 | 
7 | CCCCCCCCNc1cc[n+](CCCCCCCCCCCC[n+]2ccc(NCCCCCCCC)cc2)cc1 [Example 45, 1,12-bis-[4-(octylamino)-1-pyridinium]dodecane dibromide] | 0.5 | 1.95 | 1.95 | 1.95 | 1 | 1.95 | 1.95 | 1 | 7.8 | 1 | 3.9 | 1 | 
8 | CCCCCCCCCCNc1cc[n+](CCCCCC[n+]2ccc(NCCCCCCCCCC)cc2)cc1 [Example 64B, 1,6-bis-[4-(decylamino)-1-pyridinium]hexane dibromide] | 1 | 7.8 | 1.95 | 1.95 | 3.9 | 1.95 | 7.8 | 1 | 7.8 | 1.95 | 3.9 | 1 | 
9 | CCCCCCCCCCNc1cc[n+](CCCCCCCC[n+]2ccc(NCCCCCCCCCC)cc2)cc1 [Example 66, 1,8-bis-[4-(decylamino)-1-pyridinium]octane dibromide] | 1 | 3.9 | 7.8 | 1.95 | 3.9 | 7.8 | 7.8 | 1.95 | 15.6 | 7.8 | 15.6 | 1.95 | 
10 | CCCCCCCCCCCCNc1cc[n+](CCCCCCCCCCCC[n+]2ccc(NCCCCCCCCCCCC)cc2)cc1 [Example 75, 1,12-bis-[4-(dodecylamino)-1-pyridinium]dodecane dibromide] | 31.3 | > 62.5 | > 62.5 | > 62.5 | > 62.5 | > 62.5 | > 62.5 | 15.6 | > 62.5 | > 62.5 | > 62.5 | 15.6 | 
11 | CCCCCCCCNc1cc[n+](CCCCCCCCCC[n+]2ccc(NCCCCCCCC)cc2)cc1 [Example 10C, 1,10-bis-[4-(octylamino)-1-pyridinium]decane bis(1-oxo-2-pyridinethiolate)] |  |  |  |  |  |  |  |  |  |  |  |  | MIC S. Aureus Smith (S. Aureus Smith; 18-20 hours at 37° C.): 1.0 µg/mL; MIC E. coli Vogel (E. coli Vogel; 18-20 hours at 37° C.): 1.0 µg/mL; MIC K. pneum. 39645 (K. pneum. 39645; 18-20 hours at 37° C.): 1.95 µg/mL; MIC P. mirab. MGH-1 (P. mirab. MGH-1; 18-20 hours at 37° C.): 1.95 µg/mL; MIC Ps. aerug. MGH-2 (Ps. aerug. MGH-2; 18-20 hours at 37° C.): 3.9 µg/mL; MIC S. pyogen. C203 (S. pyogen. C203; 18-20 hours at 37° C.): 0.5 µg/mL; MIC A. niger 16404 (A. niger 16404; 18-20 hours at 37° C.): 1.95 µg/mL; MIC C. albicans 10231 (C. albicans 10231; 18-20 hours at 37° C.): 1.0 µg/mL; MIC T. menta. 9129 (T. menta. 9129; 18-20 hours at 37° C.): 1.0 µg/mL
12 | CC(CCCCCCCCC[n+]1ccc(N)cc1)[n+]1ccc(N)cc1 (stereo not drawn) [VI, 1,10-bis-(4-amino-1-pyridinium)-1-methyldecane dibromide, reference compound] | 15.6 |  |  | 250 | 500 | > 500 | > 500 | 15.6 | 250 | 31.3 |  | 15.6 | 
13 | Cc1cc(N)cc[n+]1CCCCCCCCC[n+]1ccc(N)cc1C [IX, 1,9-bis-(4-amino-2-methyl-1-pyridinium)nonane dibromide, reference compound] | 3.9 |  |  | 31.3 | 250 | > 500 | > 500 | 3.9 | 31.3 | 31.3 |  | 7.8 | 
14 | Nc1cc[n+](CCCC[n+]2ccc(N)cc2)cc1 [III, 1,4-bis-(4-amino-1-pyridinium)butane dibromide, reference compound] | 125 |  |  | 250 | > 500 | > 500 | > 500 | 62.5 | 500 | > 500 |  | 500 | 
15 | Nc1cc[n+](CCCCCCCCC[n+]2ccc(N)cc2)cc1 [VII, 1,9-bis-(4-amino-1-pyridinium)nonane dibromide, reference compound] | 31.3 |  |  | 250 | 500 | > 500 | > 500 | 7.8 | 250 | 31.3 |  | 15.6 | 
16 | Nc1cc[n+](CCCCCC[n+]2ccc(N)cc2)cc1 [IV, 1,6-bis-(4-amino-1-pyridinium)hexane dibromide, reference compound] | 125 |  |  | 250 | > 500 | > 500 | > 500 | 62.5 | 500 | > 500 |  | > 500 | 
